A short description of data set [1]: Conditioned avoidance response, monkey (parenthesised entries in the Rat CAR column). It is filed as in vivo.
In another data set the target is T1, dopamine D-1 receptor (Rattus norvegicus, UniProt P18901).
T1 construct: Striatal tissue was excised, pooled, and homogenized; from tissue; host or cells: rat brain striatum (male Sprague-Dawley)
The experiment in a line: Competitive inhibition assay, displacement of 3H-SCH 23390 (D1), rat striatal tissue. It is filed as binding, rat (male Sprague-Dawley). As to conditions: 3H-SCH 23390 0.3 nM, rat striatum, pH 7.4, 37° C., 15 minutes. An excerpt:
(§1) A methodology for characterization of binding and an interpretation of the data are described by Billard et al., Life Sciences 35, 1885 (1984) in which the binding of the benzazepine (R)-(+)-8-chloro-2,3,4,5-tetrahydro-3-methyl-5-phenyl-1H-3-benzazepin-7-olhemimaleate (SCH 23390) to the dopamine D-1 receptor is characterized.
(§2) Tritiated SCH 23390 and tritiated spiperone (a potent D-2 ligand) were obtained as described in the Billard et al. reference supra and serially diluted in 0.05M Tris buffer, pH 7.4, as required. A compound of the invention is diluted in 0.05M Tris buffer, pH 7.4, as required.
(§3) Male Sprague-Dawley rats (200 to 250 g) from Charles River Breeding Laboratories, Mass. were used to obtain brain tissue. The rats were humanely sacrificed and their brains removed and placed on ice. Striatal tissue was excised, pooled, and homogenized (Brinkman Polytron, 10 seconds) in 100 volumes (w/v) of ice cold 50 mM Tris buffer, pH 7.4 (at 25° C.). The homogenate was centrifuged at 20,000×g for 10 minutes. The resultant pellet was rehomogenized in Tris buffer and centrifuged again. The final pellet was resuspended in 50 mM Tris buffer pH 7.4 containing 120 mM NaCl, […], 1 mM CaCl2, and 1 mM MgCl2.
(§4) Polypropylene incubation tubes received 100 μl of the individual test compounds at various concentrations dissolved or suspended in 0.05M Tris, pH 7.4 containing 4 mg/ml methylcellulose, 100 μl of a solution of ^3 H-SCH 23390 in Tris buffer (final reaction mixture concentration=0.3 nM) or 100 μl of a solution of 3H-spiperone in Tris buffer (final concentration=0.2 nM) and 800 μl of tissue suspension (ca. 3 mg/assay). Tubes were incubated at 37° C. for 15 minutes and rapidly vacuum filtered through Whatman GM/B filters and rinsed 4 times with 4 ml of ice cold 50 mM Tris buffer, pH 7.4. The filters were transferred to scintillation vials, equilibrated with 10 ml of scintillant (Scintosol, Isolab, Inc.) for 16 hours at 25° C. and the radioactivity determined in a liquid scintillation counter. Ki values were determined as described by Billard et al. using the relationship Ki =IC50 /(1+([L]/KD)) wherein IC50 =concentration of test drug necessary to displace 50% of specifically bound ^3 H-Sch 23390, [L]=concentration of radioligand used in the assay, and KD =dissociation constant.

The target in a further data set is T2, D-2 receptor (Rattus norvegicus, UniProt P61169).
T2 construct: Striatal tissue was excised, pooled, and homogenized; from tissue; host or cells: rat brain striatum (male Sprague-Dawley)
T2 sequence (P61169 whole entry): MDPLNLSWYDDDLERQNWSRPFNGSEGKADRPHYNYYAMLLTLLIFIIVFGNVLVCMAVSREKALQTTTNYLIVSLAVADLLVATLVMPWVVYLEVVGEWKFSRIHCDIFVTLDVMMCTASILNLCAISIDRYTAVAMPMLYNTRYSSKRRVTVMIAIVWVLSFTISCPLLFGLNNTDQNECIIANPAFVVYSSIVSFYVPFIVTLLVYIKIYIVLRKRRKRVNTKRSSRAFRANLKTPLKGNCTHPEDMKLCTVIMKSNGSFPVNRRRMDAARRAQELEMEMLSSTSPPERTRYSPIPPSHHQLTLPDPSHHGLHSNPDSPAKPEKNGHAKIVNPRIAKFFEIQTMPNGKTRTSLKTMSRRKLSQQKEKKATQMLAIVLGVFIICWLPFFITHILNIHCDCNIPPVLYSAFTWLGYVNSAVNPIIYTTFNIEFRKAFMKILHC
The experiment in a line: Competitive inhibition assay, displacement of 3H-spiperone (D2), rat striatal tissue. The class given is binding, rat (male Sprague-Dawley). As to conditions: 3H-spiperone 0.2 nM, rat striatum; for Ki: pH 7.4, 37° C., 15 minutes.
Description: as §1, §2, §3, §4

The nature of data set [2]: Conditioned avoidance suppression in rats (CAR). It is filed as in vivo. As to conditions: rat; for minimal effective dose: read-out: Rat CAR (minimal effective dose, MED). On the procedure: N.Y. Acad. Sci. 66, 740 (1957). A series of experiments was carried out to assess the ability of the compounds of this invention to suppress the conditioned avoidance response (CAR) in rats.
Rats were required to jump onto a platform located 6.75 inches (17.15 cm) above the grid floor of an experimental chamber in response to a 5-second tone to avoid a 10-second foot shock (0.6 ma). Each experimental session consisted of 20 such trials presented at 30-second intervals. A correct CAR is scored whenever the rat jumps onto the platform during the tone (prior to foot shock). An escape response is scored when the rat jumps onto the platform during a shock. A response failure is defined as the lack of an escape response during the 10-second shock period.
Groups of 6-8 rats were trained in two consecutive days (total of 40 trials). Rats that reached criterion on day 2 (correct CARs on 16 or more of the 20 trials) were treated with either a test drug or vehicle on day 3. Suppression of CAR was analyzed statistically using Student's t-test comparing the performances of drug-treated to vehicle-treated rats.

Where [3] appears, read: @ 1 h, lowest dose tested that significantly (P<0.05) reduced avoidance responding.

From patent US5440033A, “Indolyl-, pyrrolyl- and pyrazolyl substituted benzazepines” (Schering Corporation, priority 1993, dated 1995) come the findings set out here.

Read-outs that look alike come from different tables or passages of the source.

T1 sequence (P18901 whole entry): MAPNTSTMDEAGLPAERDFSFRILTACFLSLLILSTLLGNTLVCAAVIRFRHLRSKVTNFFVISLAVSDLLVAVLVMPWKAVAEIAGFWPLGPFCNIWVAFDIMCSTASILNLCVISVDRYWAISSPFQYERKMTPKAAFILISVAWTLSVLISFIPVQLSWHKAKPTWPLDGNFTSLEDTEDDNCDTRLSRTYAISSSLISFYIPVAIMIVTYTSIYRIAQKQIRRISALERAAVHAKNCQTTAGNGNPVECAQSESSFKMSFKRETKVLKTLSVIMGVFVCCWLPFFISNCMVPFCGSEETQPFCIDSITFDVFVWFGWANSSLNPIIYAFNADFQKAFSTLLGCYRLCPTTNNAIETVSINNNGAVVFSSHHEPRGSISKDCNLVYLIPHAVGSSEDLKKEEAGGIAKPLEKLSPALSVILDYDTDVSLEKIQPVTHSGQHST

As for `Cc1cc(C2CN(C)CCc3cc(Cl)c(O)cc32)c(C)[nH]1` (racemic) [(±)C], in data set [1] (po @ 6 h), the “CAR, monkey” value was determined as 1.5 mpk. Besides, the values for the Ki on dopamine D-1 receptor and on D-2 receptor were 0.0028 µM and 2.45 µM, respectively. The minimal effective dose in data set [2] (setting [3]) is 10 mg/kg; in data set [2] (@ 6 h), 50 mg/kg.
For `Cc1cc(C2CN(C)CCc3cc(Cl)c(O)cc32)c(C)[nH]1` (single isomer, unassigned; (+)) [(+)D], the Ki on dopamine D-1 receptor came out at 0.00054 µM; on D-2 receptor, 0.59 µM. Besides, in data set [2] (30 po), the tremors result is “tremors at 30 po”. In addition, the minimal effective dose in data set [2] (setting [3]) amounted to 10 mg/kg.
In the case of `Cc1cc(C2CN(C)CCc3cc(Cl)c(O)cc32)c(C)[nH]1` (single isomer, unassigned; (-)) [(-)E], the Ki on dopamine D-1 receptor came to 0.041 µM; at D-2 receptor it was 0.613 µM.
For `CN1CCc2cc(Cl)c(O)cc2C(n2ccc3ccccc32)C1` (centres unmarked) [A], in that order: 0.026 µM and more than 10 µM.
The molecule `Cc1cc2c(cc1O)C(n1ccc3ccccc31)CN(C)CC2` (centres unmarked) [B] displayed a Ki at dopamine D-1 receptor of 0.607 µM. The IC50 on D-2 receptor (printed as IC50 in the Ki column) was more than 10 µM.
For the molecule `CN1CCc2cc(Cl)c(O)cc2C(n2cccn2)C1` (centres unmarked) [Compound I], the Ki at dopamine D-1 receptor is 0.012 µM; on D-2 receptor it was more than 10 µM.
The corresponding values for `CN1CCc2cc(Cl)c(O)cc2C(c2cccn2C)C1` (centres unmarked) [F] are 0.041 µM and 10 µM.
In the case of `Cc1cc(C2CN(C)CCc3cc(Cl)c(O)cc32)c(C)n1C` (centres unmarked) [G], the “CAR, monkey” value in data set [1] (@ 4 h) was 5 mpk. For the same molecule, the figures for the Ki at dopamine D-1 receptor and at D-2 receptor were 0.0028 µM and 0.383 µM, respectively. For the same molecule, the minimal effective dose in data set [2] (setting [3]) amounted to 10 mg/kg.
For the molecule `CN1CCc2cc(Cl)c(O)cc2C(c2ccn(C)c2)C1` (centres unmarked) [H], the figures for the inhibitory constant (Ki) on dopamine D-1 receptor and at D-2 receptor were 0.0022 µM and 0.177 µM, respectively.
Take `Cc1[nH]c2ccccc2c1C1CN(C)CCc2cc(Cl)c(O)cc21` (centres unmarked) [J]: the Ki on dopamine D-1 receptor is 0.127 µM; at D-2 receptor it was more than 10 µM.
The corresponding values for `CN1CCc2cc(Cl)c(O)cc2C(c2c[nH]c3ccccc23)C1` (centres unmarked) [K] are 0.0552 µM and more than 10 µM.
